Patent US20110059953A1, “COMPOUNDS FOR USE IN STABILIZING P53 MUTANTS” (priority 2008, published 2011)

How the values were obtained:
T-p53C-Y220C [1] = biological target: T1, T-p53C-Y220C (Homo sapiens, UniProt P04637, M133L/N239Y/N268D/V203A/Y220C); assay: Thermal denaturation using capillary DSC; assay type: binding; conditions: increase in Tm on adding 250 μM of the test compound; 20 μM protein
T1 construct: For all other experiments, the DNA coding for residues 94-312 of T-p53C was inserted into a modified pET24a(+) vector; 6xHis tag + B. stearothermophilus dihydrolipoyl acetyltransferase lipoyl domain (aa 1-85) + TEV site (N, cleaved yes); made in house; host or cells: Escherichia coli BL21 (DE3) or C41 (DE3)
Method: Differential Scanning calorimetry (DSC) was used to probe the stabilising effect of the ligands on […]. For a reversible two-state system, the melting temperature, Tm, is the transition temperature where the folded and unfolded states are equally populated.
DSC experiments were performed using a Microcal VP-Capillary DSC instrument (Microcal, Amherst, Mass.) with an active cell volume of ˜125 μl. Protein samples were buffer exchanged into 25 mM NaPi, pH 7.2, 150 mM NaCl, 5 mM DTT. This buffer + the respective concentration of ligand/DMSO was used for baseline scans, so that the only difference between sample and reference cell or sample cell in the measurement and both cells in the baseline scan is the presence of the protein. A final concentration of 20 μM T-p53C-Y220C was used. A pressure of 2.5 bars (nitrogen) was applied to the cell. Temperatures from 10 to 85° C. were scanned at a rate of 250° C./h, with a filtering period of 4 seconds and feedback gain/mode set at medium. Data were analysed with ORIGIN software (Microcal).
The following tables show the results of the thermal denaturation studies using capillary DSC, where ΔTm is the increase in Tm on adding 250 μM of the test compound. The Dunnett significance test (P) value given is the calculated probability that the change in Tm is insignificant.

T-p53C-Y220C [2] = biological target: T1, T-p53C-Y220C; assay: Thermal denaturation using fluorescence (Sypro Orange); assay type: binding; conditions: 10 μM protein
Method: This was by an adaption of the classical procedure (e.g. ref A6). Thermal unfolding was monitored by the binding of the dye Sypro Orange (5×) using a Rotor-gene 6000 (Corbett Life Science) at 270 K/h in 25 mM NaPi, 150 mM NaCl and 5 mM DTT, pH 7.2 with a protein concentration of 10 μM.
(§1) Where listed, S.E. is the calculated standard error.
as §1

T-p53C-Y220C [3] = biological target: T1, T-p53C-Y220C; assay: 1H/15N-HSQC NMR chemical shift binding (KD NMR); conditions: KD (@ 20° C.) μM, further NMR studies, some revised values
Method: Uniformly ^15N-labelled core domains of T-p53C-Y220C was expressed and purified according to the above described protocol. The low molecular-weight compounds were dissolved in d^6-DMSO to make 10 mM stock solutions. To screen compound mixtures by chemical shift mapping, 10 μl of each of 4 different compounds were mixed together and 25 μl of this mixture was added to 25 μl of D2O and 500 μl of 70 μM T-p53C-Y220C (in 25 mM NaPi, 150 mM NaCl and 5 mM DTT, pH 7.2 ). […] NMR samples were freshly prepared and kept sealed under argon after degassing by repeated cycles of pumping the NMR tube under low pressure (while gently tapping the tube) and returning to atmospheric pressure using a stream of argon gas. This was done to maintain sample stability.
Using Bruker's TopSpin 2.0 software, the number of complex points in t1 was doubled by forward complex linear prediction and shifted squared sine bell window functions were applied to both dimensions prior to zero filling and Fourier transformation. A digital resolution of 2.0 Hz/point in the ^1H frequency dimension and 4.7 Hz/point in the ^15N frequency dimension was used. […] An in-house script was used to analyse chemical shift differences and map these onto PDB protein structures.
For certain compounds an array of different concentrations were used to derive KD values (KD NMR) by fitting a saturation binding equation (Δδ=c+a*[L]/(KD+[L])) to the concentration-dependent chemical shift changes of the relevant shifting peaks.

[4] = further studies on compounds described above

SMILES	ΔTm (T-p53C-Y220C [1]) [°C]	ΔTm (° C.) (T-p53C-Y220C [2]; [4]) [°C]	Kd (T-p53C-Y220C [3]) [µM]	ΔTm (° C.) (T-p53C-Y220C [2]; further compounds) [°C]
CCn1c2ccccc2c2cc(NC(=O)CSc3nccc(=O)[nH]3)ccc21 [PK095]	0.39	–	–	–
CCn1c2ccccc2c2cc(NC(=O)CSc3nnc(N)s3)ccc21 [PK099]	0.53	0.53	–	–
CCn1c2ccccc2c2cc(NC(=S)Nc3cc(S(=O)(=O)N(C)C)ccc3C)ccc21 [PK102]	0.37	0.37	–	–
CCn1c2ccccc2c2cc(NC(=O)CN3C(=O)NC(C)(c4ccc(C)cc4)C3=O)ccc21 (centres unmarked) [PK110]	0.37	0.37	–	–
CCn1c2ccccc2c2cc(NC(=O)COC(=O)Cn3cnc4c3c(=O)n(C)c(=O)n4C)ccc21 [PK114]	0.39	0.39	–	–
CCn1c2ccccc2c2cc(NC(=O)Cc3ccc(S(=O)(=O)N4CCOCC4)s3)ccc21 [PK115]	0.49	0.49	–	–
CCn1c2ccccc2c2cc(NC(=O)CN3C(=O)c4ccccc4S3(=O)=O)ccc21 [PK117]	0.47	0.47	–	–
CCn1c2ccccc2c2cc(NC(=O)C(C)OC(=O)c3ccc([N+](=O)[O-])o3)ccc21 (centres unmarked) [PK119]	0.48	0.48	–	–
CCn1c2ccccc2c2cc(NC(=O)C(C)OC(=O)c3ccc(-n4cnnn4)cc3)ccc21 (centres unmarked) [PK134]	0.4	0.4	–	–
CCn1c2ccccc2c2cc(NC(=O)COC(=O)c3cc(C(=O)OC)cc([N+](=O)[O-])c3)ccc21 [PK137]	0.29	0.3	–	–
CCn1c2ccccc2c2cc(NC(=O)COC(=O)c3ccc(-n4cnnn4)cc3)ccc21 [PK138]	0.54	0.54	–	–
CCn1c2ccccc2c2cc(NC(=O)COC(=O)c3ccc(NC(=O)CC#N)cc3)ccc21 [PK140]	0.51	0.513	–	–
CCn1c2ccccc2c2cc(NC(=O)CCc3c(C)[nH]c(=O)c(C#N)c3C)ccc21 [PK141]	0.48	0.48	–	–
CCCN1CCN(C(C)C(=O)Nc2ccc3c(c2)c2ccccc2n3CC)CC1 (centres unmarked) [PK142]	0.26	0.26	–	–
CCn1c2ccccc2c2cc(NC(=O)C(C)Sc3nc(N)cc(=O)[nH]3)ccc21 (centres unmarked) [PK143]	0.24	0.24	–	–
COc1ccc(N2CCN(Cc3cc4c(cc3O)[nH]c3ccccc34)CC2)cc1 [PK144]	0.51	0.51	–	–
CCn1c2ccccc2c2cc(CN(C)C(=O)NC3CCS(=O)(=O)C3)ccc21 (centres unmarked) [PK148]	0.23	0.225	–	–
CCn1c2ccccc2c2cc(NC(=O)C(C)N3CCN(CC(N)=O)CC3)ccc21 (centres unmarked) [PK152]	0.22	0.22	–	–
CCn1c2ccccc2c2cc(NC(C)C(=O)NC(N)=O)ccc21 (centres unmarked) [PK158]	0.63	0.63	–	–
CCn1c2ccccc2c2cc(CN3CCC(N4CCCCC4)CC3)ccc21 [PK188]	0.39	0.39	–	–
CCn1c2ccccc2c2cc(CNCCc3c[nH]c4ccccc34)ccc21 [PK193]	0.3	0.3	–	–
CCn1c2ccccc2c2cc(CNCCc3ccccc3)ccc21 [PK194]	0.38	0.38	–	–
COc1ccc2c(c1)c(C(=O)OCC(=O)Nc1cc(F)ccc1F)c(C)n2C1CC1 [PK310]	–	–	–	0.36
CCn1cc(C(=O)Nc2c(C)nn(C)c2C)c2ccccc21 [PK313]	–	–	–	0.28
CCn1cc(C(=O)NC(c2cccc(F)c2)c2nccn2C)c2ccccc21 (centres unmarked) [PK317]	–	–	–	0.09
CCn1cc(C(=O)Nc2ccn(C)n2)c2ccccc21 [PK318]	–	–	–	0.12
CCn1cc(C(=O)OC)c2ccccc21 [PK339]	–	–	–	0.4
CCn1c(C)c(C(=O)NCCN(C)C)c2cc(OC)ccc21 [PK402]	–	–	–	0.19
CCOc1ccc2c(c1)c(CCN)cn2CC [PK407]	–	–	–	0.29
CCCn1cc(CCN)c2cc(OCC)ccc21 [PK408]	–	–	–	0.26

Second part, the compound after the results:

ΔTm (T-p53C-Y220C [1]) [°C]	ΔTm (° C.) (T-p53C-Y220C [2]; [4]) [°C]	Kd (T-p53C-Y220C [3]) [µM]	ΔTm (° C.) (T-p53C-Y220C [2]; further compounds) [°C]	SMILES
0.42	0.42	–	–	CCn1c2ccccc2c2cc(NC(=O)CN3C(=O)NC(C)(c4ccc(OC)cc4)C3=O)ccc21 (centres unmarked) [PK160]
0.47	0.46	–	–	CCn1c2ccccc2c2cc(NC(=O)CN(CC(N)=O)C(C)C)ccc21 [PK161]
0.51	0.51	–	–	CCn1c2ccccc2c2cc(CN(C)C(=O)c3nccnc3N)ccc21 [PK164]
0.64	0.64	–	–	CCn1c2ccccc2c2cc(NC(=O)c3ccc(OCC(N)=O)cc3)ccc21 [PK166]
0.41	0.4	–	–	CCNC(=S)Nc1ccc2c(c1)c1ccccc1n2CC [PK168]
0.5	0.34	–	–	CCn1c2ccccc2c2cc(CN(C)C3CCN(C)CC3)ccc21 [PK178]
0.23	0.23	–	–	CCN(CCN(C)C)Cc1ccc2c(c1)c1ccccc1n2CC [PK189]
0.25	0.25	–	–	CCn1c2ccccc2c2cc(CN3CCNCC3)ccc21 [PK198]
0.4	0.4	–	–	CCn1c2ccccc2c2cc(CN3CCC(N4CCN(CCO)CC4)CC3)ccc21 [PK205]
0.57	0.57	200	–	CCn1c2ccccc2c2cc(CNCCN(C)C)ccc21 [PK207]
0.79	0.793	97	–	CCC(CO)NCc1ccc2c(c1)c1ccccc1n2CC (centres unmarked) [PK209]
0.58	0.58	120	–	CCn1c2ccccc2c2cc(CNCCO)ccc21 [PK211]
–	–	76	0.9	CCn1c2ccccc2c2cc(CNCCCn3ccnc3)ccc21 [PK214]
0.47	0.493	–	–	CCn1c2ccccc2c2cc(CN3CCN(C)C(CCO)C3)ccc21 (centres unmarked) [PK217]
0.85	0.873	–	–	CCn1c2ccccc2c2cc(CNCCCn3cc(C(=O)N4CCOCC4)nn3)ccc21 [PK219]
0.64	0.68	–	–	CCn1c2ccccc2c2cc(CN3CCC4(CC3)CC4C(=O)NCCc3ccccn3)ccc21 (centres unmarked) [PK220]
0.52	0.54	–	–	CCn1c2ccccc2c2cc(CN3CCC(n4cc(C(=O)NCCO)nn4)CC3)ccc21 [PK221]
0.38	0.40	–	–	Cc1ccc(CN2C[C@@H]3C[C@@H](C)N4CCC[C@@]34C2=O)o1 [PK223]
0.53	0.55	–	–	CCn1c2ccccc2c2cc(CN3CCCC(N4CCOCC4)C3)ccc21 (centres unmarked) [PK225]
–	–	–	0.26	CCn1cc(C(=O)NCc2cccc(NC(=O)C3CC3)c2)c2ccccc21 [PK307]
–	–	–	0.29	CCn1cc(C(=O)OCCOc2ccccc2C(C)=O)c2ccccc21 [PK309]
–	–	–	0.15	CCn1cc(C(=O)OCC2CNC(=O)O2)c2ccccc21 (centres unmarked) [PK311]
–	–	–	0.15	CCn1cc(C(=O)NCc2cccc(NC(=O)C3CC3)c2)c2ccccc21 [PK312]
–	–	–	0.16	CCn1cc(C(=O)NCc2cccc(NC(=O)c3ccco3)c2)c2ccccc21 [PK314]
–	–	–	0.29	[2H]C(=O)N(C)Cc1nc2ccccc2c(=O)[nH]1 [PK315]
–	–	–	0.41	CCn1c2ccccc2c2cc(CNCCSc3nnnn3C)ccc21 [PK390]
–	–	–	0.66	CCn1c2ccccc2c2cc(CNCC(C)O)ccc21 (centres unmarked) [PK391]
–	–	–	0.70	CCn1c2ccccc2c2cc(CNCCNCCO)ccc21 [PK392]
